Measured values reported in PubChem BioAssay (NCI).
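Where inhibition never reached the appropriate level, the endpoint shown equals the highest concentration tested. Otherwise, values were interpolated linearly from a five-concentration, 48-hour dose response in 96-well plates. Here, GI50 denotes the concentration required for 50% inhibition of growth. The concentration for full growth arrest is given as TGI.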

Legend:
Assay in all cases: growth of human tumour cells (NCI), 48 h
786-0 renal = test system: 786-0 renal
A498 renal = test system: A498 renal
A549 NSCLC = test system: A549 NSCLC
ACHN renal = test system: ACHN renal
BT-549 breast = test system: BT-549 breast
CAKI-1 renal = test system: CAKI-1 renal
CCRF-CEM leukemia = test system: CCRF-CEM leukemia
COLO 205 colon = test system: COLO 205 colon
DU-145 prostate = test system: DU-145 prostate
EKVX NSCLC = test system: EKVX NSCLC
HCC-2998 colon = test system: HCC-2998 colon
HCT-116 colon = test system: HCT-116 colon
HCT-15 colon = test system: HCT-15 colon
HL-60(TB) leukemia = test system: HL-60(TB) leukemia
HOP-62 NSCLC = test system: HOP-62 NSCLC
HOP-92 NSCLC = test system: HOP-92 NSCLC
HS 578T breast = test system: HS 578T breast
HT29 colon = test system: HT29 colon
IGROV1 ovarian = test system: IGROV1 ovarian
K-562 leukemia = test system: K-562 leukemia
KM12 colon = test system: KM12 colon
LOX IMVI melanoma = test system: LOX IMVI melanoma
M14 melanoma = test system: M14 melanoma
MALME-3M melanoma = test system: MALME-3M melanoma
MCF7 breast = test system: MCF7 breast
MDA-MB-231 breast = test system: MDA-MB-231 breast
MDA-MB-435 = test system: MDA-MB-435
MOLT-4 leukemia = test system: MOLT-4 leukemia
NCI-H226 lung = test system: NCI-H226 lung
NCI-H23 lung = test system: NCI-H23 lung
NCI-H460 lung = test system: NCI-H460 lung
NCI-H522 lung = test system: NCI-H522 lung
NCI/ADR-RES ovarian = test system: NCI/ADR-RES ovarian
OVCAR-4 ovarian = test system: OVCAR-4 ovarian
OVCAR-5 ovarian = test system: OVCAR-5 ovarian
OVCAR-8 ovarian = test system: OVCAR-8 ovarian
PC-3 prostate = test system: PC-3 prostate
RPMI-8226 leukemia = test system: RPMI-8226 leukemia
RXF 393 renal = test system: RXF 393 renal
SF-268 CNS = test system: SF-268 CNS
SF-295 CNS = test system: SF-295 CNS
SF-539 CNS = test system: SF-539 CNS
SK-MEL-2 melanoma = test system: SK-MEL-2 melanoma
SK-MEL-28 melanoma = test system: SK-MEL-28 melanoma
SK-MEL-5 melanoma = test system: SK-MEL-5 melanoma
SK-OV-3 ovarian = test system: SK-OV-3 ovarian
SN12C renal = test system: SN12C renal
SNB-19 CNS = test system: SNB-19 CNS
SNB-75 CNS = test system: SNB-75 CNS
SR leukemia = test system: SR leukemia
SW-620 colon = test system: SW-620 colon
T-47D breast = test system: T-47D breast
TK-10 renal = test system: TK-10 renal
U251 CNS = test system: U251 CNS
UACC-257 melanoma = test system: UACC-257 melanoma
UACC-62 melanoma = test system: UACC-62 melanoma
UO-31 renal = test system: UO-31 renal

SMILES: CCOc1ccc(NC2=C(Cl)C(=O)c3nc(C)ccc3C2=O)cc1
- GI50 (786-0 renal): 1720 nM
- TGI (786-0 renal): 3190 nM
- GI50 (A498 renal): 1560 nM
- TGI (A498 renal): 5520 nM
- GI50 (A549 NSCLC): 2090 nM
- TGI (A549 NSCLC): 4640 nM
- GI50 (ACHN renal): 1570 nM
- TGI (ACHN renal): 2920 nM
- GI50 (BT-549 breast): 1430 nM
- TGI (BT-549 breast): 2800 nM
- GI50 (CAKI-1 renal): 1600 nM
- TGI (CAKI-1 renal): 2970 nM
- GI50 (CCRF-CEM leukemia): 2110 nM
- TGI (CCRF-CEM leukemia): > 100000 nM
- GI50 (COLO 205 colon): 1860 nM
- TGI (COLO 205 colon): 3640 nM
- GI50 (DU-145 prostate): 1720 nM
- TGI (DU-145 prostate): 3130 nM
- GI50 (EKVX NSCLC): 1610 nM
- TGI (EKVX NSCLC): 3120 nM
- GI50 (HCC-2998 colon): 1760 nM
- TGI (HCC-2998 colon): 3250 nM
- GI50 (HCT-116 colon): 1320 nM
- TGI (HCT-116 colon): 2790 nM
- GI50 (HCT-15 colon): 1300 nM
- TGI (HCT-15 colon): 2950 nM
- GI50 (HL-60(TB) leukemia): 1470 nM
- TGI (HL-60(TB) leukemia): 4180 nM
- GI50 (HOP-62 NSCLC): 1740 nM
- TGI (HOP-62 NSCLC): 3230 nM
- GI50 (HOP-92 NSCLC): 2020 nM
- TGI (HOP-92 NSCLC): 3510 nM
- GI50 (HS 578T breast): 2220 nM
- TGI (HS 578T breast): 5820 nM
- GI50 (HT29 colon): 2870 nM
- TGI (HT29 colon): 7080 nM
- GI50 (IGROV1 ovarian): 1360 nM
- TGI (IGROV1 ovarian): 2760 nM
- GI50 (K-562 leukemia): 1170 nM
- TGI (K-562 leukemia): > 100000 nM
- GI50 (KM12 colon): 1440 nM
- TGI (KM12 colon): 3070 nM
- GI50 (LOX IMVI melanoma): 1060 nM
- TGI (LOX IMVI melanoma): 2330 nM
- GI50 (M14 melanoma): 1680 nM
- TGI (M14 melanoma): 3230 nM
- GI50 (MALME-3M melanoma): 1650 nM
- TGI (MALME-3M melanoma): 3160 nM
- GI50 (MCF7 breast): 1540 nM
- TGI (MCF7 breast): 3820 nM
- GI50 (MDA-MB-231 breast): 1170 nM
- TGI (MDA-MB-231 breast): 2500 nM
- GI50 (MDA-MB-435): 442 nM
- TGI (MDA-MB-435): 1530 nM
- GI50 (MOLT-4 leukemia): 2490 nM
- TGI (MOLT-4 leukemia): > 100000 nM
- GI50 (NCI-H226 lung): 1840 nM
- TGI (NCI-H226 lung): 4520 nM
- GI50 (NCI-H23 lung): 1350 nM
- TGI (NCI-H23 lung): 2850 nM
- GI50 (NCI-H460 lung): 3080 nM
- TGI (NCI-H460 lung): 10400 nM
- GI50 (NCI-H522 lung): 1750 nM
- TGI (NCI-H522 lung): 3220 nM
- GI50 (NCI/ADR-RES ovarian): 1700 nM
- TGI (NCI/ADR-RES ovarian): 4110 nM
- GI50 (OVCAR-4 ovarian): 1130 nM
- TGI (OVCAR-4 ovarian): 2370 nM
- GI50 (OVCAR-5 ovarian): 1920 nM
- TGI (OVCAR-5 ovarian): 3460 nM
- GI50 (OVCAR-8 ovarian): 1570 nM
- TGI (OVCAR-8 ovarian): 3010 nM
- GI50 (PC-3 prostate): 1300 nM
- TGI (PC-3 prostate): 2770 nM
- GI50 (RPMI-8226 leukemia): 1670 nM
- TGI (RPMI-8226 leukemia): 5330 nM
- GI50 (RXF 393 renal): 1570 nM
- TGI (RXF 393 renal): 2960 nM
- GI50 (SF-268 CNS): 1550 nM
- TGI (SF-268 CNS): 3090 nM
- GI50 (SF-295 CNS): 1860 nM
- TGI (SF-295 CNS): 3430 nM
- GI50 (SF-539 CNS): 1680 nM
- TGI (SF-539 CNS): 3130 nM
- GI50 (SK-MEL-2 melanoma): 1630 nM
- TGI (SK-MEL-2 melanoma): 3030 nM
- GI50 (SK-MEL-28 melanoma): 1730 nM
- TGI (SK-MEL-28 melanoma): 3140 nM
- GI50 (SK-MEL-5 melanoma): 1720 nM
- TGI (SK-MEL-5 melanoma): 3110 nM
- GI50 (SK-OV-3 ovarian): 11000 nM
- TGI (SK-OV-3 ovarian): 30100 nM
- GI50 (SN12C renal): 1580 nM
- TGI (SN12C renal): 2990 nM
- GI50 (SNB-19 CNS): 1680 nM
- TGI (SNB-19 CNS): 3160 nM
- GI50 (SNB-75 CNS): 1460 nM
- TGI (SNB-75 CNS): 2790 nM
- GI50 (SR leukemia): 1090 nM
- TGI (SR leukemia): > 100000 nM
- GI50 (SW-620 colon): 1830 nM
- TGI (SW-620 colon): 3510 nM
- GI50 (T-47D breast): 1010 nM
- TGI (T-47D breast): 3910 nM
- GI50 (TK-10 renal): 2300 nM
- TGI (TK-10 renal): 3770 nM
- GI50 (U251 CNS): 1800 nM
- TGI (U251 CNS): 3540 nM
- GI50 (UACC-257 melanoma): 1390 nM
- TGI (UACC-257 melanoma): 2780 nM
- GI50 (UACC-62 melanoma): 1810 nM
- TGI (UACC-62 melanoma): 3290 nM
- GI50 (UO-31 renal): 1430 nM
- TGI (UO-31 renal): 2750 nM
